Laboratory results published in the NIST ThermoML archive (doi:10.1016/j.jct.2008.05.014).
Numbers after ± are expanded uncertainties.

Assay: xn = mol fraction of the nth substance listed
Conditions: Liquid; for speed of sound: Pulse-echo method

CCCCCCCCCCCC [dodecane] + CCCCCCC
Conditions	mass density [kg/m3]	speed of sound [m/s]
303.17 K, 101 kPa, x2 = 0.2001	–	1238.5 ± 1.6
308.11 K, 30390 kPa, x2 = 0.9391	–	1298.5 ± 2.4
308.11 K, 30390 kPa, x2 = 0.97	–	1294.9 ± 2.4
308.11 K, 45590 kPa, x2 = 0.9391	–	1376.1 ± 2.4
308.11 K, 45590 kPa, x2 = 0.97	–	1373 ± 2.4
308.11 K, 60790 kPa, x2 = 0.9391	–	1445.9 ± 2.5
308.11 K, 60790 kPa, x2 = 0.97	–	1443.2 ± 2.5
308.11 K, 75990 kPa, x2 = 0.9391	–	1509.5 ± 2.5
308.11 K, 75990 kPa, x2 = 0.97	–	1507.2 ± 2.5
308.11 K, 91180 kPa, x2 = 0.9391	–	1568 ± 2.6
308.11 K, 101320 kPa, x2 = 0.4999	–	1649.5 ± 2.6
308.11 K, 101320 kPa, x2 = 0.9391	–	1605.3 ± 2.6
308.11 K, 101320 kPa, x2 = 0.97	–	1603.3 ± 2.6
308.12 K, 101 kPa, x2 = 0	–	1240.2 ± 1.6
308.12 K, 101 kPa, x2 = 0.6	–	1164.6 ± 1.6
308.12 K, 101 kPa, x2 = 0.8995	–	1109.6 ± 1.6
308.12 K, 15200 kPa, x2 = 0.9391	–	1209.5 ± 2.4
308.12 K, 15200 kPa, x2 = 0.97	–	1205.4 ± 2.4
308.12 K, 45590 kPa, x2 = 0.1014	–	1468.2 ± 2.4
308.12 K, 45590 kPa, x2 = 0.4999	–	1432.7 ± 2.4
308.12 K, 60790 kPa, x2 = 0.1014	–	1531 ± 2.5
308.12 K, 75990 kPa, x2 = 0.1014	–	1589.4 ± 2.5
308.12 K, 91180 kPa, x2 = 0.1014	–	1643.8 ± 2.5
308.12 K, 91180 kPa, x2 = 0.4999	–	1614.6 ± 2.6
308.12 K, 91180 kPa, x2 = 0.97	–	1565.8 ± 2.6
308.12 K, 101320 kPa, x2 = 0.1014	–	1677.8 ± 2.6
308.13 K, 101 kPa, x2 = 0.3002	–	1207.1 ± 1.6
308.13 K, 101 kPa, x2 = 0.7002	–	1147.7 ± 1.6
308.13 K, 101 kPa, x2 = 0.8	–	1129.6 ± 1.6
308.13 K, 15200 kPa, x2 = 0.1014	–	1321.5 ± 2.4
308.13 K, 15200 kPa, x2 = 0.4999	–	1278.8 ± 2.4
308.13 K, 30390 kPa, x2 = 0.1014	–	1398.8 ± 2.4
308.13 K, 30390 kPa, x2 = 0.3007	–	1379.7 ± 2.4
308.13 K, 30390 kPa, x2 = 0.4999	–	1360.2 ± 2.4
308.13 K, 30390 kPa, x2 = 0.5003	–	1360.2 ± 2.4
308.13 K, 30390 kPa, x2 = 0.7007	–	1334.7 ± 2.4
308.13 K, 45590 kPa, x2 = 0.3007	–	1450.6 ± 2.4
308.13 K, 45590 kPa, x2 = 0.7007	–	1409.4 ± 2.4
308.13 K, 60790 kPa, x2 = 0.4999	–	1498.1 ± 2.5
308.13 K, 60790 kPa, x2 = 0.5003	–	1498.2 ± 2.5
308.13 K, 60790 kPa, x2 = 0.7007	–	1476.6 ± 2.5
308.13 K, 75990 kPa, x2 = 0	–	1596.8 ± 2.5
308.13 K, 75990 kPa, x2 = 0.4999	–	1558.1 ± 2.5
308.13 K, 75990 kPa, x2 = 0.5003	–	1558.2 ± 2.5
308.13 K, 75990 kPa, x2 = 0.7007	–	1537.9 ± 2.5
308.13 K, 91180 kPa, x2 = 0	–	1650.9 ± 2.6
308.13 K, 91180 kPa, x2 = 0.3007	–	1629.5 ± 2.6
308.13 K, 91180 kPa, x2 = 0.5003	–	1614.7 ± 2.6
308.13 K, 91180 kPa, x2 = 0.7007	–	1595.3 ± 2.6
308.13 K, 101320 kPa, x2 = 0.3007	–	1664.1 ± 2.6
308.13 K, 101320 kPa, x2 = 0.5003	–	1649.8 ± 2.6
308.13 K, 101320 kPa, x2 = 0.7007	–	1631.3 ± 2.6
308.14 K, 101 kPa, x2 = 0.3996	–	1194.1 ± 1.6
308.14 K, 15200 kPa, x2 = 0	–	1331 ± 2.4
308.14 K, 15200 kPa, x2 = 0.3007	–	1300.4 ± 2.4
308.14 K, 15200 kPa, x2 = 0.5003	–	1278.7 ± 2.4
308.14 K, 15200 kPa, x2 = 0.7007	–	1250.1 ± 2.4
308.14 K, 30390 kPa, x2 = 0	–	1407.6 ± 2.4
308.14 K, 45590 kPa, x2 = 0	–	1476.3 ± 2.4
308.14 K, 45590 kPa, x2 = 0.5003	–	1432.6 ± 2.4
308.14 K, 60790 kPa, x2 = 0	–	1538.6 ± 2.5
308.14 K, 60790 kPa, x2 = 0.3007	–	1515 ± 2.5
308.14 K, 75990 kPa, x2 = 0.3007	–	1574.3 ± 2.5
308.15 K, 101 kPa, x2 = 0	738.031 ± 0.64	–
308.15 K, 101 kPa, x2 = 0.0991	733.816 ± 0.65	–
308.15 K, 101 kPa, x2 = 0.1007	–	1230 ± 1.6
308.15 K, 101 kPa, x2 = 0.2001	–	1219 ± 1.6
308.15 K, 101 kPa, x2 = 0.2008	729.111 ± 0.65	–
308.15 K, 101 kPa, x2 = 0.2998	724.073 ± 0.66	–
308.15 K, 101 kPa, x2 = 0.3996	718.583 ± 0.67	–
308.15 K, 101 kPa, x2 = 0.5	712.522 ± 0.68	–
308.15 K, 101 kPa, x2 = 0.5002	–	1179.8 ± 1.6
308.15 K, 101 kPa, x2 = 0.6	705.898 ± 0.68	–
308.15 K, 101 kPa, x2 = 0.7005	698.575 ± 0.69	–
308.15 K, 101 kPa, x2 = 0.7995	690.497 ± 0.7	–
308.15 K, 101 kPa, x2 = 0.8486	686.148 ± 0.71	–
308.15 K, 101 kPa, x2 = 0.8988	681.426 ± 0.71	–
308.15 K, 101 kPa, x2 = 0.9498	676.348 ± 0.72	–
308.15 K, 15200 kPa, x2 = 0.8496	–	1227.4 ± 2.4
308.15 K, 30390 kPa, x2 = 0.8496	–	1314.4 ± 2.4
308.15 K, 45590 kPa, x2 = 0.8496	–	1390.8 ± 2.4
308.15 K, 60790 kPa, x2 = 0.8496	–	1459.7 ± 2.5
308.15 K, 75990 kPa, x2 = 0.8496	–	1522.3 ± 2.5
308.15 K, 91180 kPa, x2 = 0.8496	–	1580.4 ± 2.6
308.15 K, 101320 kPa, x2 = 0.8496	–	1617.2 ± 2.6
313.08 K, 15200 kPa, x2 = 0.9391	–	1191.3 ± 2.4
313.08 K, 30390 kPa, x2 = 0.9391	–	1281.8 ± 2.4
313.08 K, 45590 kPa, x2 = 0.9391	–	1360.6 ± 2.4
313.08 K, 60790 kPa, x2 = 0.9391	–	1431.4 ± 2.5
313.08 K, 75990 kPa, x2 = 0.9391	–	1495.6 ± 2.5
313.08 K, 91180 kPa, x2 = 0.9391	–	1554.5 ± 2.6
313.08 K, 101320 kPa, x2 = 0.4999	–	1636.7 ± 2.6
313.08 K, 101320 kPa, x2 = 0.9391	–	1592.1 ± 2.6
313.09 K, 30390 kPa, x2 = 0.97	–	1278.1 ± 2.4
313.09 K, 45590 kPa, x2 = 0.97	–	1357.5 ± 2.4
313.09 K, 60790 kPa, x2 = 0.4999	–	1483.8 ± 2.5
313.09 K, 60790 kPa, x2 = 0.97	–	1428.5 ± 2.5
313.09 K, 75990 kPa, x2 = 0.4999	–	1544.2 ± 2.5
313.09 K, 75990 kPa, x2 = 0.97	–	1493.1 ± 2.5
313.09 K, 91180 kPa, x2 = 0.4999	–	1601.2 ± 2.6
313.09 K, 91180 kPa, x2 = 0.97	–	1552.3 ± 2.6
313.09 K, 101320 kPa, x2 = 0.97	–	1589.9 ± 2.6
313.1 K, 101 kPa, x2 = 0	–	1221 ± 1.6
313.1 K, 101 kPa, x2 = 0.6	–	1144.4 ± 1.6
313.1 K, 101 kPa, x2 = 0.8995	–	1088.5 ± 1.6
313.1 K, 15200 kPa, x2 = 0.4999	–	1261.2 ± 2.4
313.1 K, 15200 kPa, x2 = 0.97	–	1186.9 ± 2.4
313.1 K, 30390 kPa, x2 = 0.4999	–	1344.1 ± 2.4
313.1 K, 45590 kPa, x2 = 0.4999	–	1417.6 ± 2.4
313.1 K, 60790 kPa, x2 = 0.7007	–	1462.1 ± 2.5
313.1 K, 91180 kPa, x2 = 0.7007	–	1581.9 ± 2.6
313.1 K, 101320 kPa, x2 = 0.1014	–	1665 ± 2.6
313.11 K, 101 kPa, x2 = 0.3002	–	1187.6 ± 1.6
313.11 K, 101 kPa, x2 = 0.3996	–	1174.4 ± 1.6
313.11 K, 101 kPa, x2 = 0.7002	–	1127.3 ± 1.6
313.11 K, 15200 kPa, x2 = 0.1014	–	1304 ± 2.4
313.11 K, 15200 kPa, x2 = 0.3007	–	1282.9 ± 2.4
313.11 K, 15200 kPa, x2 = 0.7007	–	1232.2 ± 2.4
313.11 K, 30390 kPa, x2 = 0.1014	–	1382.7 ± 2.4
313.11 K, 30390 kPa, x2 = 0.3007	–	1363.6 ± 2.4
313.11 K, 30390 kPa, x2 = 0.5003	–	1344.2 ± 2.4
313.11 K, 30390 kPa, x2 = 0.7007	–	1318.2 ± 2.4
313.11 K, 45590 kPa, x2 = 0.1014	–	1453 ± 2.4
313.11 K, 45590 kPa, x2 = 0.5003	–	1417.5 ± 2.4
313.11 K, 45590 kPa, x2 = 0.7007	–	1393.8 ± 2.4
313.11 K, 60790 kPa, x2 = 0.1014	–	1516.7 ± 2.5
313.11 K, 60790 kPa, x2 = 0.5003	–	1483.9 ± 2.5
